Laboratory results as given in US9833497B2, “Human originated EGF domain proteins and use of the same” (CHENGDU SOURCEBIO LIMITED-LIABILITY COMPANY, priority 2013, dated 2017).

Tests used:
Assay type in all cases: cell-based
[1] = tested on: Serratia marcescens; experiment: MIC against Gram-negative bacteria: Serratia marcescens; settings: 5×10^5 CFU/mL
Method in brief: (§1)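 Purified recombinant human EGF domain proteins are tested by broth dilution in LB against a 5×10^5 CFU/mL inoculum, with two-fold serial dilutions run in triplicate. Plates are incubated at 37° C with shaking, and the MIC is read as the lowest protein concentration without growth.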

[2] = tested on: Proteus mirabilis; experiment: MIC against Gram-negative bacteria: Proteus mirabilis; settings: 5×10^5 CFU/mL
Method in brief: as §1

[3] = tested on: Citrobacter diversus; experiment: MIC against Gram-negative bacteria: Citrobacter diversus; settings: 5×10^5 CFU/mL
Method in brief: as §1

[4] = tested on: Moraxella catarrhalis; experiment: MIC against Gram-negative bacteria: Moraxella catarrhalis; settings: 5×10^5 CFU/mL
Method in brief: as §1

[5] = tested on: Enterobacter cloacae; experiment: MIC against Gram-negative bacteria: Enterobacter cloacae; settings: 5×10^5 CFU/mL
Method in brief: as §1

[6] = tested on: Aeromonas hydrophila; experiment: MIC against Gram-negative bacteria: Aeromonas hydrophila; settings: 5×10^5 CFU/mL
Method in brief: as §1

[7] = tested on: E. coli DH5α; experiment: Antibacterial activity: MIC and growth curve against E. coli DH5α in 96-well plate; settings: minimal inhibitory concentration against E. coli DH5α; 96-well plate, 5×10^5 CFU/mL, 37° C., judged after 8 h
Method in brief: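 Log-phase DH5α (OD600 about 0.5, 37° C, 185 rpm in LB) was pelleted, resuspended in fresh LB and seeded at 5×10^5 CFU/mL with recombinant protein at 50, 25 and 12.5 μg/mL (two-fold series), in triplicate. Plates were shaken at 175 rpm, 37° C, and OD600 was read every 30 min. MIC was the lowest concentration with no growth.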

[8] = tested on: Pseudomonas aeruginosa; experiment: MIC against Gram-negative bacteria: Pseudomonas aeruginosa; settings: 5×10^5 CFU/mL
Method in brief: as §1

[9] = tested on: E. coli BL21; experiment: MIC against Gram-negative bacteria: E. coli BL21; settings: 5×10^5 CFU/mL
Method in brief: as §1

[10] = tested on: Klebsiella pneumonia; experiment: MIC against Gram-negative bacteria: Klebsiella pneumonia; settings: 5×10^5 CFU/mL
Method in brief: as §1

[11] = tested on: Proteus vulgaris; experiment: MIC against Gram-negative bacteria: Proteus vulgaris; settings: 5×10^5 CFU/mL
Method in brief: as §1

[12] = S. marcescens, 10 h cultivation at 37° C.
[13] = P. mirabilis, 10 h cultivation at 37° C.
[14] = C. diversus, 10 h cultivation at 37° C.
[15] = M. catarrhalis, 10 h cultivation at 37° C.
[16] = E. cloacae, 10 h cultivation at 37° C.
[17] = A. hydrophila, 10 h cultivation at 37° C.
[18] = P. aeruginosa, 10 h cultivation at 37° C.
[19] = K. pneumonia, 10 h cultivation at 37° C.
[20] = P. vulgaris, 10 h cultivation at 37° C.
[21] = Serratia marcescens, 96-well plate, 37° C., 10 h
[22] = Proteus mirabilis, 96-well plate, 37° C., 10 h
[23] = Citrobacter diversus, 96-well plate, 37° C., 10 h
[24] = Moraxella catarrhalis, 96-well plate, 37° C., 10 h
[25] = Enterobacter cloacae, 96-well plate, 37° C., 10 h
[26] = Aeromonas hydrophila, 96-well plate, 37° C., 10 h
[27] = Pseudomonas aeruginosa, 96-well plate, 37° C., 10 h
[28] = Klebsiella pneumonia, 96-well plate, 37° C., 10 h
[29] = Proteus vulgaris, 96-well plate, 37° C., 10 h
[30] = 10 h cultivation at 37° C., two-fold serial dilution

PRT613 (CQCSDNIDPNAVGNCNRLTGECLKCIYNTAGFYCDRCKDGFFGNPLAPNPADKCKA; listed as Homo sapiens)
50 µg/mL: MIC S. marcescens ([1]; 96-well plate, 37° C., 10 h) | MIC M. catarrhalis ([4]; 96-well plate, 37° C., 10 h) | MIC [7] | MIC K. pneumonia ([10]; 96-well plate, 37° C., 10 h)
12.5 µg/mL: MIC A. hydrophila ([6]; 96-well plate, 37° C., 10 h) | MIC E. coli BL21 ([9]; 96-well plate, 37° C., 10 h) | MIC P. vulgaris ([11]; 96-well plate, 37° C., 10 h)
25 µg/mL: MIC P. mirabilis ([2]; 96-well plate, 37° C., 10 h) | MIC C. diversus ([3]; 96-well plate, 37° C., 10 h) | MIC E. cloacae ([5]; 96-well plate, 37° C., 10 h) | MIC P. aeruginosa ([8]; 96-well plate, 37° C., 10 h)

PRT696 (DVDECTQSPGLCGRGACKNLPGSFRCVCPAGFRGSACE; listed as Homo sapiens)
12.5 µg/mL: MIC S. marcescens ([1]; 96-well plate, 37° C., 10 h) | MIC A. hydrophila ([6]; 96-well plate, 37° C., 10 h) | MIC P. aeruginosa ([8]; 96-well plate, 37° C., 10 h)
25 µg/mL: MIC C. diversus ([3]; 96-well plate, 37° C., 10 h) | MIC M. catarrhalis ([4]; 96-well plate, 37° C., 10 h) | MIC E. cloacae ([5]; 96-well plate, 37° C., 10 h) | MIC E. coli BL21 ([9]; 96-well plate, 37° C., 10 h) | MIC P. vulgaris ([11]; 96-well plate, 37° C., 10 h)
50 µg/mL: MIC P. mirabilis ([2]; 96-well plate, 37° C., 10 h) | MIC [7] | MIC K. pneumonia ([10]; 96-well plate, 37° C., 10 h)

PRT189 (SIDACASSPCFNRATCYTDLSTDTFVCNCPYGFVGSRCE; listed as Homo sapiens)
25 µg/mL: MIC (μg/mL) S. marcescens [1, 12] | MIC (μg/mL) P. mirabilis [2, 13] | MIC (μg/mL) C. diversus [3, 14] | MIC (μg/mL) E. cloacae [5, 16] | MIC [7] | MIC (μg/mL) P. aeruginosa [8, 18]
12.5 µg/mL: MIC (μg/mL) M. catarrhalis [4, 15] | MIC (μg/mL) E. coli BL21 ([9]; 10 h cultivation at 37° C.) | MIC (μg/mL) K. pneumonia [10, 19]
50 µg/mL: MIC (μg/mL) A. hydrophila [6, 17] | MIC (μg/mL) P. vulgaris [11, 20]

PRT1219 (DHDSCVHGPCQNGGSCLRRLAVSSVLKSRESLPVIIVANEPLQPFLCKCLPGYAGSWCE; listed as Homo sapiens)
50 µg/mL: MIC against P. mirabilis [2, 22] | MIC against E. cloacae [5, 25] | MIC against E. coli BL21 ([9]; 96-well plate, 37° C., 10 h)
25 µg/mL: MIC against S. marcescens [1, 21] | MIC against C. diversus [3, 23] | MIC against M. catarrhalis [4, 24] | MIC against P. aeruginosa [8, 27] | MIC against P. vulgaris [11, 29]
12.5 µg/mL: MIC against A. hydrophila [6, 26] | MIC [7] | MIC against K. pneumonia [10, 28]

PRT83 (DDNVCLREPCENYMKCVSVLRFDSSAPFLASASTLFRPIQPIAGLRCRCPPGFTGDFCE; listed as Homo sapiens)
12.5 µg/mL: MIC (μg/mL) S. marcescens [1, 21] | MIC (μg/mL) P. mirabilis [2, 22] | MIC (μg/mL) M. catarrhalis [4, 24] | MIC (μg/mL) A. hydrophila [6, 26] | MIC [7] | MIC (μg/mL) E. coli BL21 ([9]; 96-well plate, 37° C., 10 h) | MIC (μg/mL) K. pneumonia [10, 28] | MIC (μg/mL) P. vulgaris [11, 29]
25 µg/mL: MIC (μg/mL) C. diversus [3, 23] | MIC (μg/mL) E. cloacae [5, 25] | MIC (μg/mL) P. aeruginosa [8, 27]

PRT638 (DVNECELLSGVCGEAFCENVEGSFLCVCADENQEYSPMTGQCR; listed as Homo sapiens)
12.5 µg/mL: MIC M. catarrhalis ([4]; 96-well plate, 37° C., 10 h) | MIC E. coli BL21 ([9]; 96-well plate, 37° C., 10 h) | MIC K. pneumonia ([10]; 96-well plate, 37° C., 10 h) | MIC P. vulgaris ([11]; 96-well plate, 37° C., 10 h)
25 µg/mL: MIC C. diversus ([3]; 96-well plate, 37° C., 10 h) | MIC E. cloacae ([5]; 96-well plate, 37° C., 10 h) | MIC [7]
50 µg/mL: MIC S. marcescens ([1]; 96-well plate, 37° C., 10 h) | MIC P. mirabilis ([2]; 96-well plate, 37° C., 10 h) | MIC A. hydrophila ([6]; 96-well plate, 37° C., 10 h) | MIC P. aeruginosa ([8]; 96-well plate, 37° C., 10 h)

PRT67 (EIDLCYSDPCGANGRCRSREGGYTCECFEDFTGEHCE; listed as Homo sapiens)
25 µg/mL: MIC (μg/mL) M. catarrhalis [4, 24] | MIC (μg/mL) A. hydrophila [6, 26] | MIC (μg/mL) K. pneumonia [10, 28]
12.5 µg/mL: MIC (μg/mL) C. diversus [3, 23] | MIC [7] | MIC (μg/mL) P. aeruginosa [8, 27] | MIC (μg/mL) P. vulgaris [11, 29]
50 µg/mL: MIC (μg/mL) S. marcescens [1, 21] | MIC (μg/mL) P. mirabilis [2, 22] | MIC (μg/mL) E. cloacae [5, 25] | MIC (μg/mL) E. coli BL21 ([9]; 96-well plate, 37° C., 10 h)

PRT801 (FGYGCQQLCECMNNSTCDHVTGTCYCSPGFKGIRCD; listed as Homo sapiens)
12.5 µg/mL: MIC (μg/mL) S. marcescens [1, 12] | MIC (μg/mL) P. mirabilis [2, 13] | MIC (μg/mL) C. diversus [3, 14] | MIC (μg/mL) M. catarrhalis [4, 15] | MIC (μg/mL) E. cloacae [5, 16] | MIC (μg/mL) E. coli BL21 ([9]; 10 h cultivation at 37° C.) | MIC (μg/mL) P. vulgaris [11, 20]
50 µg/mL: MIC (μg/mL) P. aeruginosa [8, 18]
25 µg/mL: MIC (μg/mL) A. hydrophila [6, 17] | MIC [7] | MIC (μg/mL) K. pneumonia [10, 19]

PRT1131 (RMPGCQHGTCHQPWQCICHSGWAGKFCD; listed as Homo sapiens)
12.5 µg/mL: MIC S. marcescens [1, 30] | MIC P. mirabilis [2, 30] | MIC C. diversus [3, 30] | MIC E. coli BL21 [9, 30] | MIC K. pneumonia [10, 30]
25 µg/mL: MIC A. hydrophila [6, 30]
50 µg/mL: MIC M. catarrhalis [4, 30] | MIC E. cloacae [5, 30] | MIC [7] | MIC P. aeruginosa [8, 30] | MIC P. vulgaris [11, 30]

PRT1394 (VRDGCPGLCFGNGRCTLDQNGWHCVCQVGWSGTGCN; listed as Homo sapiens)
12.5 µg/mL: MIC against P. mirabilis ([2]; Proteus mirabilis, 10 h cultivation at 37° C.) | MIC against E. cloacae ([5]; Enterobacter cloacae, 10 h cultivation at 37° C.) | MIC against P. aeruginosa ([8]; Pseudomonas aeruginosa, 10 h cultivation at 37° C.) | MIC against E. coli BL21 ([9]; 10 h cultivation at 37° C.)
25 µg/mL: MIC against M. catarrhalis ([4]; Moraxella catarrhalis, 10 h cultivation at 37° C.) | MIC against A. hydrophila ([6]; Aeromonas hydrophila, 10 h cultivation at 37° C.) | MIC against P. vulgaris ([11]; Proteus vulgaris, 10 h cultivation at 37° C.)
50 µg/mL: MIC against S. marcescens ([1]; Serratia marcescens, 10 h cultivation at 37° C.) | MIC against C. diversus ([3]; Citrobacter diversus, 10 h cultivation at 37° C.) | MIC [7] | MIC against K. pneumonia ([10]; Klebsiella pneumonia, 10 h cultivation at 37° C.)
